The test system of the assay is Maize (Pioneer 34-N-45). Description: Maize field trial, mixture with epoxiconazol, Colby synergism (Example 6). It counts as in vivo. The following applies: 50 g a.i./ha of each compound. The procedure: Maize was grown in 2008 in a field trial at the BASF experimental station in Dinuba, 10181 Avenue 416, Calif., U.S.A. The variety Pioneer 34-N-45 was planted at a seeding rate of 35.000 plants/ha. The trial was setup as a randomized bloc design with 5 replications, each. Plot size was 43 m^2.
The maize plants were either untreted, treated with epoxiconazol (A3), with compound Ia, and with a mixture comprising compound Ia and epoxiconazol. Epoxiconazol was applied as the commercial formulation OPUS™ (125 g a.i./L, SC formulation) at a dose rate of 0.4 L/ha (50 g a.i./ha). Compound Ia was used as an EC formulation (62.5 g a.i./L) with a dose rate of 0.8 L per hectar (50 g a.i./ha). Epoxiconazol was applied together with compound Ia (as a mixture) using a co-formulation of both compounds (EC formulation, 62.5 g a.i./L each) with a product rate of 0.8 L/ha. The formulation was applied in a total spray volume of 300 L/ha. Compound Ia was sprayed at growth stage 51/55 (BBCH) with a tractor mounted spray boom with VS11003 spray nozzles at 3 bar spray pressure.
No disease symptoms were visible at the application time and no symptoms were detected at later stages.
At maturity the grain was harvested and the grain yield per plot, as an indicator of plant yield, was determined (kg/plot). Finally, the grain yield per hectare was calculated (dt/ha).
The efficacy was calculated as % increase of the grain yield (dt/ha) by each treatment compared to the untreated control.
The expected efficacies of the combinations of the active compounds were estimated using Colby's formula (Colby, S. R., Calculating synergistic and antagonistic responses of herbicide combinations, Weeds, 15, pp. 20-22, 1967) and compared with the observed efficacies.
E=x+y−x·y/100 Colby's formula: • E expected efficacy, expressed in % of the untreated control, when using the mixture of the active compounds A and B at the concentrations a and b • x efficacy, expressed in % of the untreated control, when using the active ingredient A at the concentration a • y efficacy, expressed in % of the untreated control, when using the active ingredient B at the concentration b

On to `Fc1ccc([C@]2(Cn3cncn3)O[C@H]2c2ccccc2Cl)cc1` (racemic) [Epoxiconazol (A3), epoxiconazole, reference compound], for which the “Observed efficacy (% increase of grain yield vs untreated control)” value is 0.9%. Further, the Grain yield (BBCH 51/55) came out at 155.8 dt/ha.

The record behind these values is patent publication US20110263423A1, “Plant Health Composition” (BASF SE, priority 2008, published 2011).
